In patent publication US20220279826A1, “OFF-FLAVOR SUPPRESSING AGENT” (AJINOMOTO CO., INC., priority 2019, published 2022):

What was measured:
[1] = Sensory evaluation in 1 wt % methyl cellulose aqueous solution (Experimental Example 20); settings: Table 35
Procedure: Each compound shown in the following Table 35 was added to a 1 wt % methyl cellulose aqueous solution (aqueous solution prepared by dissolving methyl cellulose (1 part by weight) in water (99 parts by weight)) so as to achieve the concentration (addition concentration) shown in the following Table 35 to prepare each evaluation sample. Here, the methyl cellulose manufactured by Unitec Foods Co., Ltd. was used.
(§1) Based on the following evaluation criteria, a panel of four experts determined by consensus the intensity of off-tastes (bitter taste, harsh taste, astringent taste) derived from methyl cellulose in each evaluation sample, by comparison with a 1 wt % methyl cellulose aqueous solution without addition of any compound (negative control).

[2] = Sensory evaluation in soy protein aqueous solution (Experimental Example 13); settings: Table 27
Procedure: Each compound shown in the following Table 27 was added to an aqueous solution prepared by dissolving powdered soy protein (4 parts by weight) in water (96 parts by weight) (hereinafter at times referred to as soy protein aqueous solution) so as to achieve the concentration (addition concentration) shown in the following Table 27 to prepare each evaluation sample. Here, the powdered soy protein manufactured by FUJI OIL CO., LTD. was used.
as §1, with “soy protein” for “methyl cellulose”, “soy protein” for “1 wt % methyl cellulose”

[3] = Sensory evaluation in potage solution with potassium chloride (Experimental Example 3); settings: Potage solution with 0.8 wt % potassium chloride; addition concentration 1 ppm (125 weight ppm with respect to potassium chloride)
Procedure: As shown in the following (1) to (3) below, 0.8 wt % of potassium chloride was added to a food base powder corresponding to 0.5 wt % of sodium chloride to prepare each base solution having an off-taste derived from potassium chloride.
Potassium chloride (0.8 g) was added to a commercially available powdered instant potage (manufactured by Ajinomoto Co., Inc., trade name “Knorr (registered trade mark) Cup Soup Potage”) (7.1 g), hot water (92.1 g) was added to dissolve the mixture to prepare a base solution (potage solution).
Each compound shown in the following Tables 15 to 17 was added to each base solution (ramen noodle soup solution, chicken broth solution, potage solution) so as to achieve the concentration (addition concentration) shown in the following Tables 15 to 17 to prepare each evaluation sample.
By a method similar to that in Experimental Example 1, a panel of two experts determined the intensity of off-tastes (bitter taste, metallic taste, harsh taste, astringent taste) derived from potassium chloride in each evaluation sample.

[4] = Sensory evaluation in pea protein aqueous solution (Experimental Example 8); settings: text summary of Table 22
Procedure: Each compound shown in the following Table 22 was added to an aqueous solution prepared by dissolving powdered pea protein (6 parts by weight) and granulated sugar (4 parts by weight) in ion exchange water (90 parts by weight) (hereinafter at times referred to as pea protein aqueous solution) so as to achieve the concentration (addition concentration) shown in the following Table 22 to prepare each evaluation sample. Here, the powdered pea protein manufactured by Cosucra was used.
as §1, with “pea protein” for “methyl cellulose”, “pea protein” for “1 wt % methyl cellulose”

[5] = Sensory evaluation in 1.5 wt % disodium phosphate aqueous solution (Experimental Example 19); settings: Table 34
Procedure: (§2) Each compound shown in the following Table 34 was added to a 1.5 wt % disodium phosphate aqueous solution (aqueous solution prepared by dissolving disodium phosphate (1.5 parts by weight) in water (98.5 parts by weight)) so as to achieve the concentration (addition concentration) shown in the following Table 34 to prepare each evaluation sample.
as §1, with “disodium phosphate” for “methyl cellulose”, “1.5” for “1”

[6] = Sensory evaluation in 0.007 wt % sucralose aqueous solution (Experimental Example 11); settings: Table 25
Procedure: as §2, with “25” for “34”, “0.007” for “1.5”, “sucralose” for “disodium phosphate”, “(an aqueous” for “(aqueous”, “sucralose (0.007” for “disodium phosphate (1.5”, “(99.993” for “(98.5”
as §1, with “three” for “four”, “metallic” for “astringent”, “sucralose” for “methyl cellulose”, “0.007” for “1”

[7] = Sensory evaluation in stevia aqueous solution (Experimental Example 7); settings: text summary of Table 21
Procedure: Each compound shown in the following Table 21 was added […] to an aqueous solution prepared by dissolving stevia (manufactured by PureCircle) ([…]) in ion exchange water (99.93 parts by weight) (hereinafter at times referred to as stevia aqueous solution) so as to achieve the concentration (addition concentration) shown in the following Table 21 to prepare each evaluation sample.
as §1, with “metallic” for “astringent”, “stevia” for “methyl cellulose”, “stevia” for “1 wt % methyl cellulose”

[8] = Sensory evaluation in BCAA sweetness aqueous solution (Experimental Example 6); set-up: key to off-taste suppressing effect: ±: no change from negative control; −: slightly suppressed compared to negative control; −−: suppressed compared to negative control (same level of intensity as BCAA sweetness aqueous solution in which total concentration of leucine, isoleucine, and valine (weight ratio=2:1:1) exceeds 0.8 wt % and is not more than 0.9 wt %); −−−: considerably suppressed compared to negative control (same level of intensity as BCAA sweetness aqueous solution in which total concentration of leucine, isoleucine, and valine (weight ratio=2:1:1) is not more than 0.8 wt %)
Procedure: Each compound shown in the following Table 20 was added to an aqueous solution prepared by dissolving leucine (0.50 parts by weight), isoleucine (0.25 parts by weight), valine (0.25 parts by weight), and granulated sugar (4 parts by weight) in ion exchange water (95 parts by weight) (hereinafter at times referred to as BCAA sweetness aqueous solution) so as to achieve the concentration (addition concentration) shown in the following Table 20 to prepare each evaluation sample.
as §1, with “harsh” for “harsh taste, astringent”, “amino acid” for “methyl cellulose”, “BCAA sweetness” for “1 wt % methyl cellulose”

SMILES: CCC(=O)O [propionic acid]
- intensity of off-tastes (bitter taste, harsh taste, astringent taste) derived from methyl cellulose [1]: suppressed
- intensity of off-tastes (bitter taste, harsh taste, astringent taste) derived from soy protein [2]: suppressed
- off-taste suppressing effect [3]: ++ (intensity of the same level as potassium chloride aqueous solution with potassium chloride concentration of not less than 0.7 wt % and less than 0.75 wt %)
- intensity of off-tastes (bitter taste, harsh taste, astringent taste) derived from pea protein [4]: suppressed
- intensity of off-tastes (bitter taste, harsh taste, astringent taste) derived from disodium phosphate [5]: suppressed
- intensity of off-tastes (bitter taste, harsh taste, metallic taste) derived from sucralose [6]: suppressed
- intensity of off-tastes (bitter taste, harsh taste, metallic taste) derived from stevia [7]: suppressed
- off-taste suppressing effect ([8]; addition concentration 100 weight ppb (10 weight ppm with respect to amino acid)): −
- off-taste suppressing effect ([8]; addition concentration 500 weight ppb (50 weight ppm with respect to amino acid)): −− (suppressed compared to negative control (same level of intensity as BCAA sweetness aqueous solution in which total concentration of leucine, isoleucine, and valine (weight ratio=2:1:1) exceeds 0.8 wt % and is not more than 0.9 wt %))
- off-taste suppressing effect ([8]; addition concentration 1000 weight ppb (100 weight ppm with respect to amino acid)): −− (suppressed compared to negative control (same level of intensity as BCAA sweetness aqueous solution in which total concentration of leucine, isoleucine, and valine (weight ratio=2:1:1) exceeds 0.8 wt % and is not more than 0.9 wt %))
- off-taste suppressing effect ([8]; addition concentration 2000 weight ppb (200 weight ppm with respect to amino acid)): −− (suppressed compared to negative control (same level of intensity as BCAA sweetness aqueous solution in which total concentration of leucine, isoleucine, and valine (weight ratio=2:1:1) exceeds 0.8 wt % and is not more than 0.9 wt %))
- intensity of off-tastes (bitter taste, harsh taste) derived from amino acid (branched chain amino acid) ([8]; summary of Table 20): suppressed
